Measured values taken from the supplement of paper PMC10307832.

How the values were obtained:
Assay in all cases: relative viability (nuclei count vs DMSO), 5 days (fraction); higher = more cells survive
LK-2 = tested on: LK-2
In short: (§1)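 Lung cancer cell lines were seeded in 1536-well plates and dosed by pin tool the next day, with either a single drug or a fixed anchor-drug dose combined with five library-drug doses (not always all listed) spaced in √10 steps. Five days later, one step fixed the cells and stained their nuclei (final 0.05% Triton X-100, 1% formaldehyde, 1 ug/ml Hoechst), and nuclei were counted on 4× images. Relative viability is the nuclei count in treated wells divided by the count in vehicle wells, and each value is the median of duplicate plates.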

SW 900 = tested on: SW 900
In short: as §1

NCI-H1563 = tested on: NCI-H1563
In short: as §1

EMC-BAC-2 = tested on: EMC-BAC-2
In short: as §1

COR-L 105 = tested on: COR-L 105
In short: as §1

SK-MES-1 = tested on: SK-MES-1
In short: as §1

NCI-H1734 = tested on: NCI-H1734
In short: as §1

EKVX = tested on: EKVX
In short: as §1

NCI-H23 = tested on: NCI-H23
In short: as §1

ChaGo-K-1 = tested on: ChaGo-K-1
In short: as §1

H3255 = tested on: H3255
In short: as §1

NCI-H441 = tested on: NCI-H441
In short: as §1

NCI-H520 = tested on: NCI-H520
In short: as §1

NCI-H596 = tested on: NCI-H596
In short: as §1

LOU-NH91 = tested on: LOU-NH91
In short: as §1

NCI-H1666 = tested on: NCI-H1666
In short: as §1

NCI-H1975 = tested on: NCI-H1975
In short: as §1

PC-3 [JPC-3] = tested on: PC-3 [JPC-3]
In short: as §1

NCI-H1755 = tested on: NCI-H1755
In short: as §1

A-427 = tested on: A-427
In short: as §1

NCI-H2170 = tested on: NCI-H2170
In short: as §1

Compound: CC(=O)O[C@@]12CO[C@@H]1C[C@H](O)[C@@]1(C)C(=O)[C@H](O)C3=C(C)[C@@H](OC(=O)[C@H](O)[C@@H](NC(=O)OC(C)(C)C)c4ccccc4)C[C@@](O)([C@@H](OC(=O)c4ccccc4)[C@H]21)C3(C)C [Docetaxel] + CCNC(=O)c1noc(-c2cc(C(C)C)c(O)cc2O)c1-c1ccc(CN2CCOCC2)cc1 [Luminespib] (partner 0.01 µM)
- relative viability (LK-2; first compound 0.0002 µM): 0.193
- relative viability (LK-2; first compound 0.000632 µM): 0.177
- relative viability (LK-2; first compound 0.002 µM): 0.157
- relative viability (LK-2; first compound 0.006325 µM): 0.164
- relative viability (LK-2; first compound 0.02 µM): 0.168
- relative viability (SW 900; first compound 0.0002 µM): 0.185
- relative viability (SW 900; first compound 0.000632 µM): 0.182
- relative viability (SW 900; first compound 0.002 µM): 0.174
- relative viability (SW 900; first compound 0.006325 µM): 0.186
- relative viability (SW 900; first compound 0.02 µM): 0.167
- relative viability (NCI-H1563; first compound 0.0002 µM): 0.518
- relative viability (NCI-H1563; first compound 0.000632 µM): 0.522
- relative viability (NCI-H1563; first compound 0.002 µM): 0.515
- relative viability (NCI-H1563; first compound 0.006325 µM): 0.457
- relative viability (NCI-H1563; first compound 0.02 µM): 0.408
- relative viability (EMC-BAC-2; first compound 0.0002 µM): 1.15
- relative viability (EMC-BAC-2; first compound 0.000632 µM): 1.08
- relative viability (EMC-BAC-2; first compound 0.002 µM): 0.385
- relative viability (EMC-BAC-2; first compound 0.006325 µM): 0.368
- relative viability (EMC-BAC-2; first compound 0.02 µM): 0.238
- relative viability (COR-L 105; first compound 0.0002 µM): 0.99
- relative viability (COR-L 105; first compound 0.000632 µM): 0.713
- relative viability (COR-L 105; first compound 0.002 µM): 0.531
- relative viability (COR-L 105; first compound 0.006325 µM): 0.595
- relative viability (COR-L 105; first compound 0.02 µM): 0.305
- relative viability (SK-MES-1; first compound 0.0002 µM): 0.695
- relative viability (SK-MES-1; first compound 0.000632 µM): 0.618
- relative viability (SK-MES-1; first compound 0.002 µM): 0.267
- relative viability (SK-MES-1; first compound 0.02 µM): 0.163
- relative viability (NCI-H1734; first compound 0.0002 µM): 0.213
- relative viability (NCI-H1734; first compound 0.000632 µM): 0.197
- relative viability (NCI-H1734; first compound 0.002 µM): 0.175
- relative viability (NCI-H1734; first compound 0.006325 µM): 0.161
- relative viability (NCI-H1734; first compound 0.02 µM): 0.14
- relative viability (EKVX; first compound 0.0002 µM): 0.85
- relative viability (EKVX; first compound 0.000632 µM): 0.795
- relative viability (EKVX; first compound 0.002 µM): 0.45
- relative viability (EKVX; first compound 0.006325 µM): 0.305
- relative viability (EKVX; first compound 0.02 µM): 0.161
- relative viability (NCI-H23; first compound 0.0002 µM): 0.208
- relative viability (NCI-H23; first compound 0.000632 µM): 0.224
- relative viability (NCI-H23; first compound 0.002 µM): 0.233
- relative viability (NCI-H23; first compound 0.006325 µM): 0.224
- relative viability (NCI-H23; first compound 0.02 µM): 0.18
- relative viability (ChaGo-K-1; first compound 0.0002 µM): 0.528
- relative viability (ChaGo-K-1; first compound 0.000632 µM): 0.468
- relative viability (ChaGo-K-1; first compound 0.002 µM): 0.251
- relative viability (ChaGo-K-1; first compound 0.006325 µM): 0.228
- relative viability (H3255; first compound 0.0002 µM): 0.907
- relative viability (H3255; first compound 0.000632 µM): 1.12
- relative viability (H3255; first compound 0.002 µM): 0.755
- relative viability (H3255; first compound 0.006325 µM): 0.157
- relative viability (H3255; first compound 0.02 µM): 0.309
- relative viability (NCI-H441; first compound 0.0002 µM): 0.294
- relative viability (NCI-H441; first compound 0.000632 µM): 0.288
- relative viability (NCI-H441; first compound 0.002 µM): 0.3
- relative viability (NCI-H441; first compound 0.006325 µM): 0.257
- relative viability (NCI-H441; first compound 0.02 µM): 0.253
- relative viability (NCI-H520; first compound 0.000632 µM): 0.23
- relative viability (NCI-H520; first compound 0.002 µM): 0.233
- relative viability (NCI-H520; first compound 0.006325 µM): 0.259
- relative viability (NCI-H520; first compound 0.02 µM): 0.207
- relative viability (NCI-H596; first compound 0.0002 µM): 0.872
- relative viability (NCI-H596; first compound 0.000632 µM): 0.58
- relative viability (NCI-H596; first compound 0.002 µM): 0.713
- relative viability (NCI-H596; first compound 0.006325 µM): 0.36
- relative viability (NCI-H596; first compound 0.02 µM): 0.267
- relative viability (LOU-NH91; first compound 0.0002 µM): 0.299
- relative viability (LOU-NH91; first compound 0.000632 µM): 0.384
- relative viability (LOU-NH91; first compound 0.002 µM): 0.299
- relative viability (LOU-NH91; first compound 0.006325 µM): 0.266
- relative viability (LOU-NH91; first compound 0.02 µM): 0.212
- relative viability (NCI-H1666; first compound 0.0002 µM): 0.943
- relative viability (NCI-H1666; first compound 0.000632 µM): 0.776
- relative viability (NCI-H1666; first compound 0.002 µM): 0.623
- relative viability (NCI-H1666; first compound 0.006325 µM): 0.512
- relative viability (NCI-H1666; first compound 0.02 µM): 0.374
- relative viability (NCI-H1975; first compound 0.0002 µM): 0.364
- relative viability (NCI-H1975; first compound 0.000632 µM): 0.24
- relative viability (NCI-H1975; first compound 0.002 µM): 0.272
- relative viability (NCI-H1975; first compound 0.006325 µM): 0.155
- relative viability (NCI-H1975; first compound 0.02 µM): 0.181
- relative viability (PC-3 [JPC-3]; first compound 0.0002 µM): 0.678
- relative viability (PC-3 [JPC-3]; first compound 0.000632 µM): 0.684
- relative viability (PC-3 [JPC-3]; first compound 0.002 µM): 0.5
- relative viability (PC-3 [JPC-3]; first compound 0.006325 µM): 0.223
- relative viability (PC-3 [JPC-3]; first compound 0.02 µM): 0.141
- relative viability (NCI-H1755; first compound 0.0002 µM): 0.427
- relative viability (NCI-H1755; first compound 0.000632 µM): 0.492
- relative viability (NCI-H1755; first compound 0.002 µM): 0.271
- relative viability (NCI-H1755; first compound 0.006325 µM): 0.218
- relative viability (NCI-H1755; first compound 0.02 µM): 0.151
- relative viability (A-427; first compound 0.0002 µM): 0.883
- relative viability (A-427; first compound 0.000632 µM): 0.832
- relative viability (A-427; first compound 0.002 µM): 0.507
- relative viability (A-427; first compound 0.006325 µM): 0.238
- relative viability (A-427; first compound 0.02 µM): 0.161
- relative viability (NCI-H2170; first compound 0.0002 µM): 0.726
- relative viability (NCI-H2170; first compound 0.000632 µM): 0.704
- relative viability (NCI-H2170; first compound 0.002 µM): 0.451
- relative viability (NCI-H2170; first compound 0.006325 µM): 0.261
- relative viability (NCI-H2170; first compound 0.02 µM): 0.148
